Laboratory results published in PMC11045757, “Group 3 medulloblastoma transcriptional networks collapse under domain specific EP300/CBP inhibition” (Nature Communications, 2024).

Tested on: 460 barcoded cancer cell lines
Test: PRISM pooled barcoded cancer cell line growth screen, 10-point dose-response, 5 days, AUC
Format: cell-based
Parameters: scale not given here
From the text: Several small molecule inhibitors of distinct protein domains of EP300/CBP are available, though the majority target the histone acetyltransferase domain (HAT) or bromodomain (BRD)[5],[10],[21],[22]. […] We used these tools to investigate the relative contribution of the EP300/CBP BRD or HAT domain to tumor cell growth (Fig. 1a). To do so, we performed 10-point, dose-response growth assays using mixed pools of 460 barcoded cancer cell lines, over five days of treatment in vitro[33],[34]. Growth was measured using an area-under-the-curve (AUC) approach (Supplementary Table 1, Supplementary Fig. 1a). […] Given potential differences in compound penetration and solubility, and to compare the relative cell line and tumor-specific effects of these two compounds in assays performed non-simultaneously, we performed a median normalization of each dataset (Supplementary Table 2).

Work on `CO[C@H]1CC[C@H](n2c([C@@H]3CCCC(=O)N3c3ccc(F)c(F)c3)nc3cc(-c4c(C)noc4C)ccc32)CC1` [CCS1477] yielded an AUC (MG63, Osteosarcoma) of 1, an AUC (MHHNB11, Neuroblastoma) of 0.7003 and an AUC (MIAPACA2, Pancreatic Cancer) of 0.9396. For the same compound, the AUC (MKN1, Gastric Cancer) was 0.9606, the AUC (MKN7, Gastric Cancer) was 0.7767 and the AUC (MKN45, Gastric Cancer) was 0.856. The AUC (MOLM13, AML) was 0.3814, the AUC (MOLM16, AML) was 0.9868 and the AUC (MOLT3, T-acute leukemia) was 0.9924. For the same compound, the AUC (MOLT16, T-acute leukemia) was 0.8465, the AUC (MON, Rhabdoid) was 0.6598 and the AUC (NB1, Neuroblastoma) was 0.5737. It also gave an AUC (NB4, AML) of 1, an AUC (NCIH23, Lung Cancer) of 0.9771 and an AUC (NCIH28, Lung Cancer) of 0.9928. It also gave an AUC (NCIH82, Lung Cancer) of 0.997, an AUC (NCIH196, Lung Cancer) of 0.842 and an AUC (NCIH211, Lung Cancer) of 0.8687. It also gave an AUC (NCIH226, Lung Cancer) of 0.9874, an AUC (NCIH292, Lung Cancer) of 0.9319 and an AUC (NCIH322, Lung Cancer) of 0.9929. The AUC (NCIH358, Lung Cancer) was 1, the AUC (NCIH441, Lung Cancer) was 0.7826 and the AUC (NCIH460, Lung Cancer) was 0.9935. The AUC (NCIH520, Lung Cancer) was 0.9951, the AUC (NCIH524, Lung Cancer) was 1 and the AUC (NCIH596, Lung Cancer) was 0.9011. For the same compound, the AUC (NCIH647, Lung Cancer) was 0.8544, the AUC (NCIH650, Lung Cancer) was 0.6419 and the AUC (NCIH661, Lung Cancer) was 1. It also gave an AUC (NCIH747, Colon/Colorectal Cancer) of 0.9981, an AUC (NCIH841, Lung Cancer) of 0.9721 and an AUC (NCIH1048, Lung Cancer) of 1. It also gave an AUC (NCIH1299, Lung Cancer) of 0.9947, an AUC (NCIH1341, Lung Cancer) of 0.9136 and an AUC (NCIH1373, Lung Cancer) of 0.9741. For the same compound, the AUC (NCIH1437, Lung Cancer) was 0.9932, the AUC (NCIH1568, Lung Cancer) was 0.9412 and the AUC (NCIH1573, Lung Cancer) was 1. The AUC (NCIH1581, Lung Cancer) was 0.9081, the AUC (NCIH1648, Lung Cancer) was 0.7802 and the AUC (NCIH1792, Lung Cancer) was 0.8352. It also gave an AUC (NCIH1793, Lung Cancer) of 0.9609, an AUC (NCIH1838, Lung Cancer) of 0.9639 and an AUC (NCIH1930, Lung Cancer) of 0.9338. The AUC (NCIH1944, Lung Cancer) was 0.9624, the AUC (NCIH1975, Lung Cancer) was 0.9927 and the AUC (NCIH2004RT, Rhabdoid) was 1. For the same compound, the AUC (NCIH2052, Lung Cancer) was 0.9941, the AUC (NCIH2122, Lung Cancer) was 0.9334 and the AUC (NCIH2170, Lung Cancer) was 0.8755. For the same compound, the AUC (NCIH2172, Lung Cancer) was 0.8463, the AUC (NCIH2196, Lung Cancer) was 0.8725 and the AUC (NCIH2228, Lung Cancer) was 1. It also gave an AUC (NCIH2347, Lung Cancer) of 0.9989, an AUC (NCIH2444, Lung Cancer) of 1 and an AUC (NCO2, CML) of 0.9122. It also gave an AUC (NIHOVCAR3, Ovarian Cancer) of 0.9967, an AUC (NUDHL1, Lymphoma) of 0.5218 and an AUC (NUGC3, Gastric Cancer) of 0.905. The AUC (OAW42, Ovarian Cancer) was 0.9968, the AUC (OC314, Ovarian Cancer) was 0.7634 and the AUC (OC316, Ovarian Cancer) was 0.664. For the same compound, the AUC (OCIAML2, AML) was 0.5324, the AUC (OCIAML3, AML) was 0.8075 and the AUC (OCILY19, Lymphoma) was 0.7248. For the same compound, the AUC (OCILY132, T-cell lymphoma) was 0.9273, the AUC (OCIM1, AML) was 0.8977 and the AUC (OE19, Esophageal Cancer) was 0.9508. The AUC (OE21, Esophageal Cancer) was 0.9943, the AUC (ONCODG1, Ovarian Cancer) was 0.9442 and the AUC (ONS76, Medulloblastoma) was 0.6602. The AUC (OSRC2, Kidney Cancer) was 1, the AUC (OV56, Ovarian Cancer) was 1 and the AUC (OVCAR8, Ovarian Cancer) was 0.8858. For the same compound, the AUC (OVISE, Ovarian Cancer) was 0.9803, the AUC (OVK18, Ovarian Cancer) was 0.5969 and the AUC (OVKATE, Ovarian Cancer) was 0.8791. For the same compound, the AUC (OVTOKO, Ovarian Cancer) was 0.9328, the AUC (PANC0203, Pancreatic Cancer) was 0.9609 and the AUC (PANC0327, Pancreatic Cancer) was 1. It also gave an AUC (PANC0403, Pancreatic Cancer) of 0.9938, an AUC (PANC0504, Pancreatic Cancer) of 0.8732 and an AUC (PANC0813, Pancreatic Cancer) of 1. For the same compound, the AUC (PATU8902, Pancreatic Cancer) was 0.9744, the AUC (PC3, Prostate Cancer) was 1 and the AUC (PECAPJ15, Head and Neck Cancer) was 0.9295. The AUC (PF382, T-acute leukemia) was 0.7571, the AUC (PK1, Pancreatic Cancer) was 0.9937 and the AUC (PK59, Pancreatic Cancer) was 1. For the same compound, the AUC (PSN1, Pancreatic Cancer) was 0.7783, the AUC (RCM1, Colon/Colorectal Cancer) was 0.9586 and the AUC (RD, Rhabdomyosarcoma) was 0.8954. The AUC (RDES, Ewing Sarcoma) was 0.5629, the AUC (RERFLCAI, Lung Cancer) was 0.937 and the AUC (RERFLCKJ, Lung Cancer) was 0.8827. For the same compound, the AUC (RH4, Rhabdomyosarcoma) was 0.8163, the AUC (RH28, Rhabdomyosarcoma) was 0.8877 and the AUC (RH36, Rhabdomyosarcoma) was 0.9558. It also gave an AUC (RHJT, Rhabdomyosarcoma) of 0.8764, an AUC (RI1, B-cell Lymphoma) of 0.7034 and an AUC (RL952, Endometrial/Uterine Cancer) of 0.9936. For the same compound, the AUC (RL, B-cell Lymphoma) was 0.8905, the AUC (RPMI8402, T-acute leukemia) was 0.8153 and the AUC (RT4, Bladder Cancer) was 0.9721. The AUC (RVH421, Melanoma) was 0.975, the AUC (S117, Thyroid Sarcoma) was 0.8697 and the AUC (SAOS2, Osteosarcoma) was 0.6766. It also gave an AUC (SCABER, Bladder Cancer) of 0.9263, an AUC (SCC9, Head and Neck Cancer) of 0.7896 and an AUC (SCC25, Head and Neck Cancer) of 0.9849. It also gave an AUC (SCLC21H, Lung Cancer) of 0.8733 and an AUC (SEM, B-cell Leukemia) of 0.851.
